Assay results as given in patent US20130203659A1 (priority 2006, published 2013).

Columns and labels:
human GLP-1 receptor [1] = biological target: T1, human GLP-1 receptor (Homo sapiens, UniProt P43220); assay: GLP-1R reporter assay (cAMP-regulated luciferase, CHOK1 cells), human receptor; type: cell-based; conditions: luciferase reporter, 6 hours exposure; read-out: EC50 human
T1 construct: expressed in transfected cells; host or cells: CHOK1 cells with a cAMP-regulated luciferase reporter construct
Experimental: (§1) A. GLP-1R Reporter Assay:
(§2) Increased cAMP levels were measured through enhanced expression of a luciferase reporter gene. […] The evening prior to assay, the cells were washed, the medium replaced with serum-free medium containing 0.5% protease-free bovine serum albumin (BSA), and then cultured overnight. […] Cell lysates were assayed for luciferase activity using the Luciferase Assay System (Promega Corporation, Madison, Wis.). Luciferase activity was measured using a Luminoskan Ascent (Thermo Electron Corporation, Marietta, Ohio). Nonlinear regression analyses of resultant compound concentration curves were performed using GraphPad Prism (GraphPad Software, Inc., San Diego, Calif.).

human GLP-1 receptor [2] = biological target: T1, human GLP-1 receptor; assay: In vitro GLP-1 receptor binding (125I-GLP-1 ligand binding assay), human receptor
Experimental: Cells were sedimented at 1500 rpm for 10 minutes. The resulting pellets were homogenized in 15 mls of ice cold sucrose buffer (25 mM Tris-HCl, 0.32 M Sucrose, 0.25 g/L sodium azide, pH 7.4) with a motorized, glass fitted, Teflon homogenizer. The homogenate was centrifuged at 48,000×g at 4° C. for 10 minutes, resuspended in 25 ml assay buffer (50 mM Tris-HCl, 5 mM MgCl2, 10 mg/ml protease-free BSA, 0.1 mg/ml STI, and 0.1 mg/ml Pefabloc, pH 7.4) with a Tissue-Tearor (Biospec Products), then centrifuged again at 48,000×g for 10 minutes. The pellets were homogenized for a third time in 15 ml assay buffer using the Tissue-Tearor and again centrifuged at 48,000×g for 10 minutes. The resulting pellet was resuspended in assay buffer at a wet weight concentration of 4 mg/ml.
Binding assays were performed in 96-well U-bottom plates. […] Bound radioactivity was determined using a TopCount microplate scintillation and luminescence counter (Packard Instrument Company, PerkinElmer, Shelton, Conn.). Nonlinear regression analyses of resulting concentration curves were performed using GraphPad Prism (GraphPad Software, Inc., San Diego, Calif.).

mouse GLP-1 receptor = biological target: T2, mouse GLP-1 receptor (Mus musculus, UniProt O35659); assay: GLP-1R reporter assay (cAMP-regulated luciferase, CHOK1 cells), mouse receptor; type: cell-based; conditions: 6 hours exposure
T2 construct: expressed in transfected cells; host or cells: CHOK1 cells with a cAMP-regulated luciferase reporter construct
T2 sequence (O35659 22-463): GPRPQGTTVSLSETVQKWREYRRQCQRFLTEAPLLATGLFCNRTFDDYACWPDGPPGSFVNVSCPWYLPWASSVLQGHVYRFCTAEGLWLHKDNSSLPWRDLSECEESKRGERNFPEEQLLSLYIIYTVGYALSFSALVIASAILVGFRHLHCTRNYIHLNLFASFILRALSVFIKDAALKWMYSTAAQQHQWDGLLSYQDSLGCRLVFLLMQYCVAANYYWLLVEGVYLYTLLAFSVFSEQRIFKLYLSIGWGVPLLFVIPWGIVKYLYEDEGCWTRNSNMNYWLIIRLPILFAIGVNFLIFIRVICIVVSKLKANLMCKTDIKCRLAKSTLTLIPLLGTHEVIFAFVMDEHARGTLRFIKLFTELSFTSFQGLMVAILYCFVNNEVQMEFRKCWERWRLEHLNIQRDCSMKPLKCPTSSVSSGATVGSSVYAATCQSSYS
Experimental: as §1, §2

T1 sequence (P43220 24-463): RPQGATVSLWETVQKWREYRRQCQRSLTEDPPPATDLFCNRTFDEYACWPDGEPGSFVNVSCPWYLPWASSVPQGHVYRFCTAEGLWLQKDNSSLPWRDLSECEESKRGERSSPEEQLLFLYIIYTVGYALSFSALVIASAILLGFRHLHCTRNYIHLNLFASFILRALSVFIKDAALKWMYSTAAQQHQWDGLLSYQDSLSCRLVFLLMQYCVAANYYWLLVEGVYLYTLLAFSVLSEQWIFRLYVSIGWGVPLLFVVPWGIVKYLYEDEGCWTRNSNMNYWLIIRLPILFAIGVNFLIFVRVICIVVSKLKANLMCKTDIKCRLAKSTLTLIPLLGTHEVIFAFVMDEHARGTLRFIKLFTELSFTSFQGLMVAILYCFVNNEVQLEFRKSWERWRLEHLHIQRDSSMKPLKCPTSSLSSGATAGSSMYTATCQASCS

Compound	EC50 (human GLP-1 receptor [1]) [nM]	IC50 (human GLP-1 receptor [2]) [nM]	EC50 (mouse GLP-1 receptor) [nM]
CC[C@H](C)[C@H](NC(=O)[C@H](Cc1ccccc1)NC(=O)[C@H](CCC(=O)O)NC(=O)[C@H](CCCCN)NC(=O)[C@H](C)NC(=O)[C@H](C)NC(=O)[C@H](CCC(N)=O)NC(=O)CNC(=O)[C@H](CCC(=O)O)NC(=O)[C@H](CC(C)C)NC(=O)[C@H](Cc1ccc(O)cc1)NC(=O)[C@H](CO)NC(=O)[C@H](CO)NC(=O)[C@@H](NC(=O)[C@H](CC(=O)O)NC(=O)[C@H](CO)NC(=O)[C@@H](NC(=O)[C@H](Cc1ccccc1)NC(=O)[C@@H](NC(=O)CNC(=O)[C@H](CCC(=O)O)NC(=O)[C@H](C)NC(=O)[C@H](Cc1c[nH]cn1)NC(=O)[C@H](CCC(=O)O)NC(=O)[C@@H](N)CCSC)[C@@H](C)O)[C@@H](C)O)C(C)C)C(=O)N[C@@H](C)C(=O)N[C@@H](Cc1c[nH]c2ccccc12)C(=O)N[C@@H](CC(C)C)C(=O)N[C@H](C(=O)N[C@@H](CCCCN)C(=O)NCC(=O)N[C@@H](CCCNC(=N)N)C(=O)O)C(C)C [ME-GLP1, ME HAEGTFTSDVSSYLEGQAAKEFIAWLVKGR]	1	–	4
CC[C@H](C)[C@H](NC(=O)[C@H](Cc1ccccc1)NC(=O)[C@H](CCC(=O)O)NC(=O)[C@H](CCCCN)NC(=O)[C@H](C)NC(=O)[C@H](C)NC(=O)[C@H](CCC(N)=O)NC(=O)CNC(=O)[C@H](CCC(=O)O)NC(=O)[C@H](CC(C)C)NC(=O)[C@H](Cc1ccc(O)cc1)NC(=O)[C@H](CO)NC(=O)[C@H](CO)NC(=O)[C@@H](NC(=O)[C@H](CC(=O)O)NC(=O)[C@H](CO)NC(=O)[C@@H](NC(=O)[C@H](Cc1ccccc1)NC(=O)[C@@H](NC(=O)CNC(=O)[C@H](CCC(=O)O)NC(=O)[C@H](C)NC(=O)[C@H](Cc1c[nH]cn1)NC(=O)[C@H](Cc1c[nH]cn1)NC(=O)[C@H](Cc1c[nH]cn1)NC(=O)[C@@H](N)CCSC)[C@@H](C)O)[C@@H](C)O)C(C)C)C(=O)N[C@@H](C)C(=O)N[C@@H](Cc1c[nH]c2ccccc12)C(=O)N[C@@H](CC(C)C)C(=O)N[C@H](C(=O)N[C@@H](CCCCN)C(=O)NCC(=O)N[C@@H](CCCNC(=N)N)C(=O)O)C(C)C [MHH-GLP1, MHH HAEGTFTSDVSSYLEGQAAKEFIAWLVKGR]	1	350	5
CC[C@H](C)[C@H](NC(=O)[C@H](Cc1ccccc1)NC(=O)[C@H](CCC(=O)O)NC(=O)[C@H](CCCCN)NC(=O)[C@H](C)NC(=O)[C@H](C)NC(=O)[C@H](CCC(N)=O)NC(=O)CNC(=O)[C@H](CCC(=O)O)NC(=O)[C@H](CC(C)C)NC(=O)[C@H](Cc1ccc(O)cc1)NC(=O)[C@H](CO)NC(=O)[C@H](CO)NC(=O)[C@@H](NC(=O)[C@H](CC(=O)O)NC(=O)[C@H](CO)NC(=O)[C@@H](NC(=O)[C@H](Cc1ccccc1)NC(=O)[C@@H](NC(=O)CNC(=O)[C@H](CCC(=O)O)NC(=O)[C@H](C)NC(=O)[C@H](Cc1c[nH]cn1)NC(=O)[C@H](CCC(N)=O)NC(=O)[C@@H](N)CCSC)[C@@H](C)O)[C@@H](C)O)C(C)C)C(=O)N[C@@H](C)C(=O)N[C@@H](Cc1c[nH]c2ccccc12)C(=O)N[C@@H](CC(C)C)C(=O)N[C@H](C(=O)N[C@@H](CCCCN)C(=O)NCC(=O)N[C@@H](CCCNC(=N)N)C(=O)O)C(C)C [MQ-GLP1, MQ HAEGTFTSDVSSYLEGQAAKEFIAWLVKGR]	0.5	–	3
CC[C@H](C)[C@H](NC(=O)[C@H](Cc1ccccc1)NC(=O)[C@H](CCC(=O)O)NC(=O)[C@H](CCCCN)NC(=O)[C@H](C)NC(=O)[C@H](C)NC(=O)[C@H](CCC(N)=O)NC(=O)CNC(=O)[C@H](CCC(=O)O)NC(=O)[C@H](CC(C)C)NC(=O)[C@H](Cc1ccc(O)cc1)NC(=O)[C@H](CO)NC(=O)[C@H](CO)NC(=O)[C@@H](NC(=O)[C@H](CC(=O)O)NC(=O)[C@H](CO)NC(=O)[C@@H](NC(=O)[C@H](Cc1ccccc1)NC(=O)[C@@H](NC(=O)CNC(=O)[C@H](CCC(=O)O)NC(=O)[C@H](C)NC(=O)[C@H](Cc1c[nH]cn1)NC(=O)[C@H](Cc1c[nH]c2ccccc12)NC(=O)[C@@H](N)CCSC)[C@@H](C)O)[C@@H](C)O)C(C)C)C(=O)N[C@@H](C)C(=O)N[C@@H](Cc1c[nH]c2ccccc12)C(=O)N[C@@H](CC(C)C)C(=O)N[C@H](C(=O)N[C@@H](CCCCN)C(=O)NCC(=O)N[C@@H](CCCNC(=N)N)C(=O)O)C(C)C [MW-GLP1, MW HAEGTFTSDVSSYLEGQAAKEFIAWLVKGR]	0.8	–	5

Continued by falling EC50 (human GLP-1 receptor [1]), values first:

EC50 (human GLP-1 receptor [1]) [nM]	IC50 (human GLP-1 receptor [2]) [nM]	EC50 (mouse GLP-1 receptor) [nM]	Compound
0.5	100	3	CC[C@H](C)[C@H](NC(=O)[C@H](Cc1ccccc1)NC(=O)[C@H](CCC(=O)O)NC(=O)[C@H](CCCCN)NC(=O)[C@H](C)NC(=O)[C@H](C)NC(=O)[C@H](CCC(N)=O)NC(=O)CNC(=O)[C@H](CCC(=O)O)NC(=O)[C@H](CC(C)C)NC(=O)[C@H](Cc1ccc(O)cc1)NC(=O)[C@H](CO)NC(=O)[C@H](CO)NC(=O)[C@@H](NC(=O)[C@H](CC(=O)O)NC(=O)[C@H](CO)NC(=O)[C@@H](NC(=O)[C@H](Cc1ccccc1)NC(=O)[C@@H](NC(=O)CNC(=O)[C@H](CCC(=O)O)NC(=O)[C@H](C)NC(=O)[C@H](Cc1c[nH]cn1)NC(=O)[C@H](CCSC)NC(=O)[C@@H](N)CCSC)[C@@H](C)O)[C@@H](C)O)C(C)C)C(=O)N[C@@H](C)C(=O)N[C@@H](Cc1c[nH]c2ccccc12)C(=O)N[C@@H](CC(C)C)C(=O)N[C@H](C(=O)N[C@@H](CCCCN)C(=O)NCC(=O)N[C@@H](CCCNC(=N)N)C(=O)O)C(C)C [MM-GLP1, MM HAEGTFTSDVSSYLEGQAAKEFIAWLVKGR]
0.4	53	2	CC[C@H](C)[C@H](NC(=O)[C@H](Cc1ccccc1)NC(=O)[C@H](CCC(=O)O)NC(=O)[C@H](CCCCN)NC(=O)[C@H](C)NC(=O)[C@H](C)NC(=O)[C@H](CCC(N)=O)NC(=O)CNC(=O)[C@H](CCC(=O)O)NC(=O)[C@H](CC(C)C)NC(=O)[C@H](Cc1ccc(O)cc1)NC(=O)[C@H](CO)NC(=O)[C@H](CO)NC(=O)[C@@H](NC(=O)[C@H](CC(=O)O)NC(=O)[C@H](CO)NC(=O)[C@@H](NC(=O)[C@H](Cc1ccccc1)NC(=O)[C@@H](NC(=O)CNC(=O)[C@H](CCC(=O)O)NC(=O)[C@H](C)NC(=O)[C@H](Cc1c[nH]cn1)NC(=O)[C@@H](N)CO)[C@@H](C)O)[C@@H](C)O)C(C)C)C(=O)N[C@@H](C)C(=O)N[C@@H](Cc1c[nH]c2ccccc12)C(=O)N[C@@H](CC(C)C)C(=O)N[C@H](C(=O)N[C@@H](CCCCN)C(=O)NCC(=O)N[C@@H](CCCNC(=N)N)C(=O)O)C(C)C [S-GLP-1, S HAEGTFTSDVSSYLEGQAAKEFIAWLVKGR]
0.2	38	0.8	CC[C@H](C)[C@H](NC(=O)[C@H](Cc1ccccc1)NC(=O)[C@H](CCC(=O)O)NC(=O)[C@H](CCCCN)NC(=O)[C@H](C)NC(=O)[C@H](C)NC(=O)[C@H](CCC(N)=O)NC(=O)CNC(=O)[C@H](CCC(=O)O)NC(=O)[C@H](CC(C)C)NC(=O)[C@H](Cc1ccc(O)cc1)NC(=O)[C@H](CO)NC(=O)[C@H](CO)NC(=O)[C@@H](NC(=O)[C@H](CC(=O)O)NC(=O)[C@H](CO)NC(=O)[C@@H](NC(=O)[C@H](Cc1ccccc1)NC(=O)[C@@H](NC(=O)CNC(=O)[C@H](CCC(=O)O)NC(=O)[C@H](C)NC(=O)[C@H](Cc1c[nH]cn1)NC(=O)[C@H](C)N)[C@@H](C)O)[C@@H](C)O)C(C)C)C(=O)N[C@@H](C)C(=O)N[C@@H](Cc1c[nH]c2ccccc12)C(=O)N[C@@H](CC(C)C)C(=O)N[C@H](C(=O)N[C@@H](CCCCN)C(=O)NCC(=O)N[C@@H](CCCNC(=N)N)C(=O)O)C(C)C [A-GLP-1, A HAEGTFTSDVSSYLEGQAAKEFIAWLVKGR]
